Assay results as given in US20260138981A1, “DIHYDROFOLATE REDUCTASE INHIBITORS FOR ANTI-BIOTIC RESISTANT INFECTIONS” (THE TRUSTEES OF PRINCETON UNIVERSITY, priority 2022, published 2026).

How the values were obtained:
[1] = tested on: E. coli lptd34213; assay: Growth with thymidine supplementation; assay type: cell-based; conditions: fluorofolin 50 μg/mL, 0.3 mM thymidine; also with SMX
Method: FIG. 6F quantifies P. aeruginosa PA14 or E. coli lptd4213 treated with fluorofolin 50 μg/mL in the presence or absence of 0.3 mM thymidine.
FIG. 6G quantifies E. coli lptd4213 treated with fluorofolin 50 μg/mL and SMX (78.1 μg/mL) in the presence or absence of 0.3 mM thymidine or 0.3 mM TMI supplementation, Curves represent optical at 600 nm (OD600) of 2 biological replicates. Mean±SD are shown.
Where listed, growth media were prepared according manufacturer recommendations: LB Broth and LB Broth supplemented with 0.3 mM thymine (BD Biosciences 244610, Alfa Aesar A15879), 0.3 mM methionine (Sigma-Aldrich M9625), 0.3 mM inosine (EMD Millipore 4060), Mueller Hinton II Broth (Cation-Adjusted)/(CAMHB) (BD 212322) or 0.3 mM thymidine (Sigma-Aldrich T1895), Gutnick Minimal Media (1.0 g/L K2SO4, 13.5 g/L K2HPO4, 4.7 g/L KH2PO4, 0.1 g/L of MgSO4-7H2O, 10 mM NH4Cl as a nitrogen source, and 0.4% w/v glucose as a carbon source)^62.

[2] = tested on: P. aeruginosa PA01 and ATTC 27853, 5 ESKAPE pathogens; assay: Growth inhibition of bacterial panel (summary statement); conditions: PA01, ATTC 27853 and all 5 ESKAPE pathogens tested
Method: Overnight cultures were diluted 1:150 in LB Broth and added to a 96-well plate. Antibiotics were serially diluted 1:2 and added to columns of the 96-well plate and grown at 37° C. with continuous shaking. Cell growth was measured by optical density (OD600).
4-8 bacterial colonies of strains of interest were vortexed in saline and adjusted to an OD600 of 0.2. Strains were diluted 1:200 into CAMHB media into 96-well plates. Antibiotics were serially diluted 1:3 in DMSO, and 1 μL of each dilution was added to bacteria. The plates were incubated for 18-20 hours at 37° C. before observation.

[3] = tested on: P. aeruginosa PA14; assay: Colony forming units (CFU) counting after 4-hour treatment; assay type: cell-based; conditions: rich media, PA14, 2×MIC, CFU/mL
Method: Data points represent 3 biological replicates with 3 technical replicates. Mean±SD are shown.
P. aeruginosa PA14 overnight cultures were diluted 1:100 and grown to exponential phase (OD600=0.4-0.6). Cultures were diluted 1:10 and treated with antibiotic. At each time point, 150 μL of culture was removed, serial diluted 1:10 six times, and plated onto LB Agar plates. Plates were grown overnight at 37° C. after which visible colonies were counted. CFU/mL was reported from dilutions in which ˜10-100 single colonies were visible.

[4] = tested on: folate metabolism in P. aeruginosa; assay: Metabolomics (LC-MS metabolite abundance); assay type: cell-based; conditions: PA14, 2×MIC for 15 min, vs solvent control; P=0.0186 and 0.0196
Method: Metabolite abundance was quantified in comparison to the solvent only control. Data represents mean±SD for 3 biological replicates. P values were calculated using unpaired t-test using Prism 9 (P values≤0.05)
To test the ability of fluorofolin to inhibit P. aeruginosa DHFR in vivo, metabolomics were performed. As a positive control for DHFR inhibition, we turned to TMP.
Overnight P. aeruginosa PA14 cultures were diluted 1:150 in Gutnick Minimal Media and grown to early-mid exponential phase (OD600=0.4-0.6).
LC-MS analysis of metabolites was performed on Orbitrap Exploris 240 mass spectrometer coupled with hydrophilic interaction liquid chromatography (HILIC)^64. […] Flow rate was 0.15 mL/min, and column temperature was set at 25° C. […] The orbitrap resolution was 180,000 at m/z of 200. The maximum injection time was 200 ms, and the automatic gain control (AGC) target was 1000%. Raw mass spectrometry data were converted to mzXML format by MSConvert (ProteoWizard). Pick-peaking was done on El Maven (v0.8.0, Elucidata).

[5] = Serum binding (plasma protein binding, dialysis); assay type: in vitro ADME; conditions: mouse plasma
Method: An initial t=0 sample was collected. fluorofolin was incubated with plasma for 6 hours after which dialysis was performed. After dialysis, supernatant was collected, and the amount of fluorofolin was determined by LC-MS/MS to determine the % Unbound of fluorofolin. Serum binding parameters were determined as follows: • 1. % Bound=100%−% Unbound • 2. Log K=Log (% Bound/100−% Bound) • 3. % Remaining=Area-ratio6hr/Area-ratio0hr×100% • 4. % Recovery was determined as (Area-ratiobuffer-chamber+Area-ratioplasma-chamber)/(Area-ratioTotal sample)×100 Serum binding analysis was performed by Pharmaron, Inc. (Beijing, ROC). C. elegans Maintenance and Toxicity Assay

[6] = tested on: co-cultures of E. coli MG1655 and P. aeruginosa PA14; assay: Growth competition assay (co-culture); assay type: cell-based; conditions: 50 μg/mL fluorofolin, 1:1 inoculum, overnight, CFU
Method: FIG. 3C characterizes competition of P. aeruginosa PA14 and E. coli MG1655 in LB or TMI-supplemented LB media. PA14 and E. coli MG1655 were inoculated at a 1:1 ratio and grown overnight in the presence or absence of 50 μg/mL fluorofolin in each media condition. The following day CFU were counted on LB-agar or Pseudomonas selection agar plates to determine CFU/mL of each species. Data represent mean±SD of triplicate biological and triplicate technical replicates. P values were calculated using unpaired t-test using Prism 9 (P value≤0.001)
Overnight cultures of P. aeruginosa PA14 or E. coli MG1655 were diluted 1:150 into LB Broth in the presence of DMSO or 50 μg/mL fluorofolin with or without TMI supplementation and grown for 16 hours at 37° C. Cultures of each species were grown separately as well as being mixed 1:1. Cultures were plated onto LB Agar or Pseudomonas Selection Agar (Sigma-Aldrich 17208) and CFU counting was carried out as described above. To control for appropriate, Pseudomonas selection, E. coli MG1655 was plated onto Pseudomonas Selection Agar and an absence of colonies was observed. The number of colonies on Pseudomonas Selection Agar plates was reported as the CFU/mL of P. aeruginosa. To calculate CFU/mL of E. coli MG1655, CFU/mL were determined from LB Agar plates, and the CFU/mL of P. aeruginosa were subtracted from these values.

With `Nc1nc(N)c2c(ccc3c2ccn3Cc2ccnc(F)c2)n1` [fluorofolin] the “rescue of growth inhibition by thymidine supplementation alone” value [1] was “Rescue from fluorofolin inhibition was also shown”, the concentration inhibiting growth [2] was “less than 50 μg/mL” and the “type of antibacterial activity” value [3] was “bacteriostatic”. For the same molecule, the “abundance of AICAR and dUMP” value [4] was “significant upregulation”, the recovery at 6 h, 1 μM [5] was 91.9% and the “effect on co-culture, absence of TMI supplementation” value ([6]; LB) was “effectively killed both E. coli and P. aeruginosa”. The “effect on co-culture, presence of TMI supplementation” value ([6]; TMI-supplemented LB) was “selectively inhibited the growth of P. aeruginosa but not E. coli”.
